Results from paper PMC5218480 (PLoS ONE, 2017).

Test system: MV-4-11 cells
Test: Gene expression microarray analysis (Affymetrix PrimeView) and GSEA
Assay type: cell-based, human
Design: RFU PODN (11730768_x_at) / Fold change /veh PODN (11730768_x_at) / RFU LINC00158 (11744669_a_at) / Fold change /veh LINC00158 (11744669_a_at) / RFU DUSP10 (11751237_a_at) / Fold change /veh DUSP10 (11751237_a_at) / RFU ID3 (11757404_x_at) / Fold change /veh ID3 (11757404_x_at) / RFU PLEKHG5 (11737974_s_at) / Fold change /veh PLEKHG5 (11737974_s_at) / RFU LRRC4B (11730491_at) / Fold change /veh LRRC4B (11730491_at) / RFU GIMAP4 (11747438_a_at) / Fold change /veh GIMAP4 (11747438_a_at) / RFU KRT8 (11758183_x_at) / Fold change /veh KRT8 (11758183_x_at) / RFU CNN1 (11734310_a_at) / Fold change /veh CNN1 (11734310_a_at) / RFU VPS37D (11726825_at) / Fold change /veh VPS37D (11726825_at) / RFU C10orf10 (11716522_x_at) / Fold change /veh C10orf10 (11716522_x_at) / RFU KIR2DL2 /// KIR2DL4 /// KIR2DL5A /// KIR2DL5B /// KIR2DS1 /// KIR2DS2 /// KIR2DS3 /// KIR2DS4 /// KIR3DL3 /// KIR3DL3 /// KIR3DS1 (11738374_at) / Fold change /veh KIR2DL2 /// KIR2DL4 /// KIR2DL5A /// KIR2DL5B /// KIR2DS1 /// KIR2DS2 /// KIR2DS3 /// KIR2DS4 /// KIR3DL3 /// KIR3DL3 /// KIR3DS1 (11738374_at) / RFU C1QL1 (11718748_at) / Fold change /veh C1QL1 (11718748_at) / RFU TMPRSS4 (11747572_a_at) / Fold change /veh TMPRSS4 (11747572_a_at) / RFU HAMP (11756126_x_at) / Fold change /veh HAMP (11756126_x_at) / RFU RNFT2 (11725882_a_at) / Fold change /veh RNFT2 (11725882_a_at) / RFU NR4A2 (11747474_a_at) / Fold change /veh NR4A2 (11747474_a_at) / RFU ABCC12 (11746883_a_at) / Fold change /veh ABCC12 (11746883_a_at) / RFU TMEM136 (11760407_x_at) / Fold change /veh TMEM136 (11760407_x_at) / RFU CLDN22 /// WWC2 (11732394_at) / Fold change /veh CLDN22 /// WWC2 (11732394_at) / RFU HLA-DPB1 (11760878_x_at) / Fold change /veh HLA-DPB1 (11760878_x_at) / RFU SPINT1 (11716480_a_at) / Fold change /veh SPINT1 (11716480_a_at) / RFU GAP43 (11754022_s_at) / Fold change /veh GAP43 (11754022_s_at) / RFU A4GNT (11735810_at) / Fold change /veh A4GNT (11735810_at) / RFU PRB3 (11715151_x_at) / Fold change /veh PRB3 (11715151_x_at) / RFU TUBB4B (11761932_at) / Fold change /veh TUBB4B (11761932_at) / RFU CAPN14 (11732068_a_at) / Fold change /veh CAPN14 (11732068_a_at) / RFU TMCC2 (11721928_a_at) / Fold change /veh TMCC2 (11721928_a_at) / RFU IRGQ (11745062_a_at) / Fold change /veh IRGQ (11745062_a_at) / RFU FAM174B (11720279_a_at) / Fold change /veh FAM174B (11720279_a_at) / RFU TMPRSS4 (11748680_a_at) / Fold change /veh TMPRSS4 (11748680_a_at) / RFU FAM212B (11763350_a_at) / Fold change /veh FAM212B (11763350_a_at) / RFU PLEKHG5 (11743358_a_at) / Fold change /veh PLEKHG5 (11743358_a_at) / RFU ZSCAN30 (11745921_a_at) / Fold change /veh ZSCAN30 (11745921_a_at) / RFU CMKLR1 (11741424_a_at) / Fold change /veh CMKLR1 (11741424_a_at) / RFU LOC101060620 /// MAPK8IP1 (11723275_at) / Fold change /veh LOC101060620 /// MAPK8IP1 (11723275_at) / RFU SPTSSB (11747773_x_at) / Fold change /veh SPTSSB (11747773_x_at) / RFU PRSS12 (11739890_at) / Fold change /veh PRSS12 (11739890_at) / RFU BIN1 (11741810_x_at) / Fold change /veh BIN1 (11741810_x_at) / RFU WNT11 (11732464_a_at) / Fold change /veh WNT11 (11732464_a_at) / RFU C10orf10 (11716521_a_at) / Fold change /veh C10orf10 (11716521_a_at) / RFU C5orf56 (11738089_at) / Fold change /veh C5orf56 (11738089_at) / RFU CYB561 (11721691_x_at) / Fold change /veh CYB561 (11721691_x_at) / RFU ANKRD19P (11752326_a_at) / Fold change /veh ANKRD19P (11752326_a_at) / RFU OR2T12 /// OR2T33 /// OR2T8 (11738714_s_at) / Fold change /veh OR2T12 /// OR2T33 /// OR2T8 (11738714_s_at) / RFU VCAN (11748164_a_at) / Fold change /veh VCAN (11748164_a_at) / RFU JSRP1 (11732532_at) / Fold change /veh JSRP1 (11732532_at) / RFU KRTAP10-11 (11738290_x_at) / Fold change /veh KRTAP10-11 (11738290_x_at) / RFU MYO3A (11730013_a_at) / Fold change /veh MYO3A (11730013_a_at) / RFU EBF3 (11725865_a_at) / Fold change /veh EBF3 (11725865_a_at) / RFU CAMK2N1 (11719241_x_at) / Fold change /veh CAMK2N1 (11719241_x_at) / RFU C5orf56 (11738088_a_at) / Fold change /veh C5orf56 (11738088_a_at) / RFU OLFML3 (11715873_a_at) / Fold change /veh OLFML3 (11715873_a_at) / RFU LOC100653217 /// NTM (11731650_a_at) / Fold change /veh LOC100653217 /// NTM (11731650_a_at) / RFU MAPK11 (11762145_a_at) / Fold change /veh MAPK11 (11762145_a_at) / RFU FIZ1 (11724087_x_at) / Fold change /veh FIZ1 (11724087_x_at) / RFU OASL (11726364_x_at) / Fold change /veh OASL (11726364_x_at) / RFU SOX15 (11748057_x_at) / Fold change /veh SOX15 (11748057_x_at) / RFU CD79A (11719716_a_at) / Fold change /veh CD79A (11719716_a_at) / RFU HIST1H1D (11736915_at) / Fold change /veh HIST1H1D (11736915_at) / RFU CASKIN2 (11723855_a_at) / Fold change /veh CASKIN2 (11723855_a_at) / RFU LOC730098 (11760151_x_at) / Fold change /veh LOC730098 (11760151_x_at) / RFU OR4N2 (11742367_at) / Fold change /veh OR4N2 (11742367_at) / RFU PRRT2 (11749266_a_at) / Fold change /veh PRRT2 (11749266_a_at) / RFU SNX32 (11753110_a_at) / Fold change /veh SNX32 (11753110_a_at) / RFU CDHR5 (11726645_a_at) / Fold change /veh CDHR5 (11726645_a_at) / RFU RCAN1 (11760418_a_at) / Fold change /veh RCAN1 (11760418_a_at) / RFU FAM167A (11723789_a_at) / Fold change /veh FAM167A (11723789_a_at) / RFU FAM26E (11764081_at) / Fold change /veh FAM26E (11764081_at) / RFU ISYNA1 (11749810_s_at) / Fold change /veh ISYNA1 (11749810_s_at) / RFU ACY1 (11761880_at) / Fold change /veh ACY1 (11761880_at) / RFU 11764098_at / Fold change /veh 11764098_at / RFU SAMD14 (11745864_x_at) / Fold change /veh SAMD14 (11745864_x_at) / RFU NPB (11741838_a_at) / Fold change /veh NPB (11741838_a_at) / RFU TMPRSS6 (11731388_a_at) / Fold change /veh TMPRSS6 (11731388_a_at) / RFU KRTAP10-2 (11738614_at) / Fold change /veh KRTAP10-2 (11738614_at) / RFU ARHGAP8 /// PRR5-ARHGAP8 (11727945_x_at) / Fold change /veh ARHGAP8 /// PRR5-ARHGAP8 (11727945_x_at) / RFU KRTAP5-7 /// NADSYN1 (11734609_at) / Fold change /veh KRTAP5-7 /// NADSYN1 (11734609_at) / RFU RASL12 (11751679_a_at) / Fold change /veh RASL12 (11751679_a_at) / RFU CDKN2B (11736163_a_at) / Fold change /veh CDKN2B (11736163_a_at) / RFU PRF1 (11729649_at) / Fold change /veh PRF1 (11729649_at) / RFU, ZNF638 /// ZNF638-IT1 / Fold change vs veh, ZNF638 /// ZNF638-IT1 / RFU, PANK3 / Fold change vs veh, PANK3 / RFU, SH3YL1 / Fold change vs veh, SH3YL1 / RFU, ZEB2 / Fold change vs veh, ZEB2 / RFU, NRIP1 / Fold change vs veh, NRIP1 / RFU, PTTG1IP / Fold change vs veh, PTTG1IP / RFU, CAPN2 / Fold change vs veh, CAPN2 / RFU, MED14 / Fold change vs veh, MED14 / RFU, SNORA58 / Fold change vs veh, SNORA58 / RFU, C1orf63 / Fold change vs veh, C1orf63 / RFU, LRRFIP1 / Fold change vs veh, LRRFIP1 / RFU, NDUFAF7 / Fold change vs veh, NDUFAF7 / RFU, SLC12A2 / Fold change vs veh, SLC12A2 / RFU, IBTK / Fold change vs veh, IBTK / RFU, ESF1 / Fold change vs veh, ESF1 / Fold change vs veh, TMEM50B / RFU, TAOK1 / Fold change vs veh, TAOK1 / RFU, ACBD3 / Fold change vs veh, ACBD3 / RFU, TMA16 / Fold change vs veh, TMA16 / RFU, RWDD3 / Fold change vs veh, RWDD3 / RFU, BCAT1 / Fold change vs veh, BCAT1 / RFU, EDEM3 / Fold change vs veh, EDEM3 / RFU, TMEM33 / Fold change vs veh, TMEM33 / RFU, WDR75 / Fold change vs veh, WDR75 / RFU, AHCTF1 / Fold change vs veh, AHCTF1 / RFU, TFRC / Fold change vs veh, TFRC / RFU, ZDHHC17 / Fold change vs veh, ZDHHC17 / RFU, NOM1 / Fold change vs veh, NOM1 / RFU, ARL8B / Fold change vs veh, ARL8B / RFU, ZBTB11 / Fold change vs veh, ZBTB11 / RFU, TAMM41 / Fold change vs veh, TAMM41 / RFU, KIAA1704 /// LOC100996395 / Fold change vs veh, KIAA1704 /// LOC100996395 / RFU, ING1 / Fold change vs veh, ING1 / RFU, TRMT61B / Fold change vs veh, TRMT61B / RFU, FUBP3 / Fold change vs veh, FUBP3 / RFU, TP53 / Fold change vs veh, TP53 / RFU, TNKS2 / Fold change vs veh, TNKS2 / RFU, ZFP14 / Fold change vs veh, ZFP14 / RFU, ACTR2 / Fold change vs veh, ACTR2 / RFU, PPP3R1 / Fold change vs veh, PPP3R1 / RFU, PIK3R1 / Fold change vs veh, PIK3R1 / RFU, HNRNPA1 / Fold change vs veh, HNRNPA1 / RFU, RNF170 / Fold change vs veh, RNF170 / RFU, ZNF28 / Fold change vs veh, ZNF28 / RFU, RNGTT / Fold change vs veh, RNGTT / RFU, OGT / Fold change vs veh, OGT / RFU, BRD1 / Fold change vs veh, BRD1 / RFU, MARS / Fold change vs veh, MARS / RFU, ZNF655 / Fold change vs veh, ZNF655 / RFU, FAHD1 / Fold change vs veh, FAHD1 / RFU, BDP1 / Fold change vs veh, BDP1 / RFU, LRRCC1 / Fold change vs veh, LRRCC1 / RFU, ARID1A / Fold change vs veh, ARID1A / RFU, ZNF146 / Fold change vs veh, ZNF146 / RFU, ZNF330 / Fold change vs veh, ZNF330 / RFU, GPN3 / Fold change vs veh, GPN3 / RFU, C9orf123 / Fold change vs veh, C9orf123 / RFU, N4BP2L2 / Fold change vs veh, N4BP2L2 / RFU, ARFIP1 / Fold change vs veh, ARFIP1 / RFU, FAM179B / Fold change vs veh, FAM179B / RFU, BCL10 / Fold change vs veh, BCL10 / RFU, UHRF1BP1L / Fold change vs veh, UHRF1BP1L / RFU, BET1 / Fold change vs veh, BET1 / RFU, CNOT2 / Fold change vs veh, CNOT2 / RFU, ZNF268 / Fold change vs veh, ZNF268 / Fold change vs veh, ZNF507 / RFU, DGCR2 / Fold change vs veh, DGCR2 / RFU, WDSUB1 / Fold change vs veh, WDSUB1 / Fold change vs veh, HSP90B1 /// MIR3652 / RFU, ADSS / Fold change vs veh, ADSS / RFU, GK / Fold change vs veh, GK / RFU, ZNF148 / Fold change vs veh, ZNF148 / RFU, TAF9 / Fold change vs veh, TAF9 / RFU, SLC1A5 / Fold change vs veh, SLC1A5 / RFU, SLMO2 / Fold change vs veh, SLMO2 / RFU, ABCC4 / Fold change vs veh, ABCC4 / RFU, LOC101060439 /// RAP1B / Fold change vs veh, LOC101060439 /// RAP1B / RFU, RFX7 / Fold change vs veh, RFX7 / RFU, GTPBP10 / Fold change vs veh, GTPBP10 / RFU, CNEP1R1 / Fold change vs veh, CNEP1R1 / RFU, BIVM-ERCC5 /// ERCC5 / Fold change vs veh, BIVM-ERCC5 /// ERCC5 / RFU, ILF3 / Fold change vs veh, ILF3 / RFU 11762660_at / Fold change /veh 11762660_at / RFU VCAN (11757783_s_at) / Fold change /veh VCAN (11757783_s_at) / RFU DDX43 (11728927_at) / Fold change /veh DDX43 (11728927_at) / RFU KRT8 (11758188_x_at) / Fold change /veh KRT8 (11758188_x_at) / RFU NKD1 (11759106_at) / Fold change /veh NKD1 (11759106_at) / RFU SRD5A1 (11742802_a_at) / Fold change /veh SRD5A1 (11742802_a_at) / RFU TPSAB1 /// TPSB2 (11721975_s_at) / Fold change /veh TPSAB1 /// TPSB2 (11721975_s_at) / RFU GSTM3 (11746129_a_at) / Fold change /veh GSTM3 (11746129_a_at) / RFU IL23R (11737362_x_at) / Fold change /veh IL23R (11737362_x_at) / RFU TMEM51 (11727254_a_at) / Fold change /veh TMEM51 (11727254_a_at) / RFU PIWIL2 (11732686_x_at) / Fold change /veh PIWIL2 (11732686_x_at) / RFU ORM1 (11744905_x_at) / Fold change /veh ORM1 (11744905_x_at) / RFU CCDC152 (11743942_at) / Fold change /veh CCDC152 (11743942_at) / RFU ECM1 (11717891_a_at) / Fold change /veh ECM1 (11717891_a_at) / RFU IL23R (11748794_a_at) / Fold change /veh IL23R (11748794_a_at) / RFU TNFAIP8L3 (11732012_x_at) / Fold change /veh TNFAIP8L3 (11732012_x_at) / RFU MBOAT4 (11741988_at) / Fold change /veh MBOAT4 (11741988_at) / RFU 11764193_at / Fold change /veh 11764193_at / RFU TMEM53 (11763286_at) / Fold change /veh TMEM53 (11763286_at) / RFU MAGEB2 (11727129_at) / Fold change /veh MAGEB2 (11727129_at) / RFU TMEM200A (11744735_a_at) / Fold change /veh TMEM200A (11744735_a_at) / RFU CCDC152 (11751479_a_at) / Fold change /veh CCDC152 (11751479_a_at) / RFU FAM211A (11726209_a_at) / Fold change /veh FAM211A (11726209_a_at) / RFU RGS16 (11746705_a_at) / Fold change /veh RGS16 (11746705_a_at) / RFU VCAN (11755009_s_at) / Fold change /veh VCAN (11755009_s_at) / RFU RHOB (11743442_s_at) / Fold change /veh RHOB (11743442_s_at) / RFU RGS16 (11720943_a_at) / Fold change /veh RGS16 (11720943_a_at) / RFU RGS16 (11720944_at) / Fold change /veh RGS16 (11720944_at) / RFU, VPS4B / Fold change vs veh, VPS4B / RFU, CREB1 / Fold change vs veh, CREB1 / RFU, DNAJC13 / Fold change vs veh, DNAJC13 / RFU, GNAQ / Fold change vs veh, GNAQ / RFU, CDK5R1 / Fold change vs veh, CDK5R1 / RFU, ZRANB3 / Fold change vs veh, ZRANB3 / RFU, CUL4A / Fold change vs veh, CUL4A / RFU, CCNY / Fold change vs veh, CCNY / RFU, UFL1 / Fold change vs veh, UFL1 / RFU, COG3 / Fold change vs veh, COG3 / RFU, DIAPH2 / Fold change vs veh, DIAPH2 / RFU, SKA2 / Fold change vs veh, SKA2 / RFU, AFF3 / Fold change vs veh, AFF3 / RFU, LMF1 / Fold change vs veh, LMF1 / RFU, IPO11 / Fold change vs veh, IPO11 / RFU, DFFB / Fold change vs veh, DFFB / RFU, FOXP1 / Fold change vs veh, FOXP1 / RFU, CARD8 / Fold change vs veh, CARD8 / RFU, STRN3 / Fold change vs veh, STRN3 / RFU, ADK / Fold change vs veh, ADK / RFU, RASSF2 / Fold change vs veh, RASSF2 / RFU, WIPF1 / Fold change vs veh, WIPF1 / RFU, LARP1B / Fold change vs veh, LARP1B / RFU, RASA1 / Fold change vs veh, RASA1 / RFU, RB1 / Fold change vs veh, RB1 / RFU, PPFIA1 / Fold change vs veh, PPFIA1 / RFU, MAT2A / Fold change vs veh, MAT2A / RFU, CCT5 / Fold change vs veh, CCT5 / RFU, WDR92 / Fold change vs veh, WDR92 / RFU, CUX1 / Fold change vs veh, CUX1 / RFU, TTC7A / Fold change vs veh, TTC7A / RFU, TMEM135 / Fold change vs veh, TMEM135 / RFU, DEPTOR / Fold change vs veh, DEPTOR / RFU, CPM / Fold change vs veh, CPM / RFU, DNAJB6 / Fold change vs veh, DNAJB6 / RFU, CACNA2D3 / Fold change vs veh, CACNA2D3 / RFU, DTX4 / Fold change vs veh, DTX4 / RFU, TFCP2 / Fold change vs veh, TFCP2 / RFU, GMCL1 /// GMCL1P1 / Fold change vs veh, GMCL1 /// GMCL1P1 / RFU, AEBP2 / Fold change vs veh, AEBP2 / RFU, SNHG1 /// SNORD22 /// SNORD25 /// SNORD26 /// SNORD27 /// SNORD28 /// SNORD29 /// SNORD31 / Fold change vs veh, SNHG1 /// SNORD22 /// SNORD25 /// SNORD26 /// SNORD27 /// SNORD28 /// SNORD29 /// SNORD31 / Fold change (Aza/veh), C12orf56 (ProbeSet 11735607_a_at) / Fold change (ACY-1035/veh), C12orf56 (ProbeSet 11735607_a_at) / Fold change (Aza/veh), FGFR1OP (ProbeSet 11751329_s_at) / Fold change (ACY-1035/veh), FGFR1OP (ProbeSet 11751329_s_at) / Fold change (Aza/veh), VPS36 (ProbeSet 11739960_a_at) / Fold change (ACY-1035/veh), VPS36 (ProbeSet 11739960_a_at) / RFU SYPL1 (11715823_x_at) / Fold change /veh SYPL1 (11715823_x_at) / RFU IGFBP7 (11715501_s_at) / Fold change /veh IGFBP7 (11715501_s_at) / RFU REEP3 (11722064_at) / Fold change /veh REEP3 (11722064_at) / RFU IGLL1 (11728026_x_at) / Fold change /veh IGLL1 (11728026_x_at): dose or concentration left out as unconfirmed
Conditions: ProbeSet 11722022_s_at; LIST D

## Nc1ncn([C@@H]2O[C@H](CO)[C@@H](O)[C@H]2O)c(=O)n1 [azacitidine]
  RFU, CDK5R1: 40.46 RFU
